For orientation: MIC means the lowest concentration that inhibits growth of the organism.

Results on three compounds are retold here after ChEMBL document CHEMBL5512647, “Cajaninstilbene acid derivatives conjugated with siderophores of 3-hydroxypyridin-4(1H)-ones as novel antibacterial agents against Gram-negative bacteria based on the Trojan horse strategy” (Eur J Med Chem, 2024).

Data set [1] deals with Klebsiella pneumoniae. As to the kind of experiment: Antibacterial activity against Klebsiella pneumoniae ATCC 700603 measured after 18 to 20 hrs by broth microdilution method. To be noted: time 18-20 hrs. The format is functional.
Data set [2] relates to Escherichia coli. In words: Antibacterial activity against Escherichia coli ATCC 25922 measured after 18 to 20 hrs by broth microdilution method. The format is functional. Particulars: time 18-20 hrs.
The next data set deals with Staphylococcus aureus. In words: Antibacterial activity against Staphylococcus aureus ATCC 25923 measured after 18 to 20 hrs by broth microdilution method. To be noted: time 18-20 hrs. It is filed as functional. Background: Dilution methods test growth across graded concentrations, often in twofold steps.
For data set [3], the system named is Pseudomonas aeruginosa. In words: Antibacterial activity against Pseudomonas aeruginosa PAO1 measured after 18 to 20 hrs by broth microdilution method. The format is functional. To be noted: time 18-20 hrs.
Data set [4] concerns Pseudomonas aeruginosa. In words: Antibacterial activity against Pseudomonas aeruginosa 1121 measured after 18 to 20 hrs by broth microdilution method. The format is functional. To be noted: time 18-20 hrs.
Data set [5] has as its system Pseudomonas aeruginosa. As to the kind of experiment: Antibacterial activity against Pseudomonas aeruginosa 27853 measured after 18 to 20 hrs by broth microdilution method. The format is functional. To be noted: time 18-20 hrs.
Data set [6] deals with Pseudomonas aeruginosa. In words: Antibacterial activity against Pseudomonas aeruginosa FB measured after 18 to 20 hrs by broth microdilution method. It is filed as functional. To be noted: time 18-20 hrs.
The test system of data set [7] is Pseudomonas aeruginosa. In words: Antibacterial activity against Pseudomonas aeruginosa PAO1 measured after 18 to 20 hrs in presence of FeIII cultured under CAA medium by broth microdilution method. It is filed as functional. To be noted: time 18-20 hrs.
In data set [8] the test system is Pseudomonas aeruginosa. In words: Antibacterial activity against Pseudomonas aeruginosa 27853 measured after 18 to 20 hrs in presence of FeIII cultured under CAA medium by broth microdilution method. The format is functional. To be noted: time 18-20 hrs.
Data set [9] relates to Klebsiella pneumoniae. As to the kind of experiment: Antibacterial activity against Klebsiella pneumoniae ATCC 700603 measured after 18 to 20 hrs in presence of FeIII cultured under CAA medium by broth microdilution method. It is filed as functional. Particulars: time 18-20 hrs.
Data set [10] concerns Escherichia coli. In words: Antibacterial activity against Escherichia coli ATCC 25922 measured after 18 to 20 hrs in presence of FeIII cultured under CAA medium by broth microdilution method. It is filed as functional. To be noted: time 18-20 hrs.
Data set [11] concerns Cell membrane. As to the kind of experiment: Induction of outer membrane permeabilization in Pseudomonas aeruginosa PAO1 assessed as increase in accumulation of NPN by measuring fluorescence intensity measured for 1 hr by NPN dye uptake assay. The format is cell membranes.
Data set [12] is described as follows: Cytotoxicity against African green monkey Vero cells at 50 uM measured after 24 hrs by MTT assay. Particulars: chlorocebus sabaeus. It is filed as toxicity, cell-based. Background: Tetrazolium dyes change colour on reduction, which living cells bring about.
Data set [13] is described as follows: Cytotoxicity against African green monkey Vero cells at 100 uM measured after 24 hrs by MTT assay. It is filed as toxicity, cell-based. Particulars: chlorocebus sabaeus.
A further data set concerns Erythrocyte. As to the kind of experiment: Hemolytic activity in rabbit red blood cells assessed as hemolysis at 12.5 to 50 uM measured after 2 hrs by microplate reader based analysis. It is filed as toxicity, cell-based, Oryctolagus cuniculus. To be noted: dose 12.5-50 µM.
A short description of data set [14]: Acute toxicity in L4 stage of Caenorhabditis elegans at 12.5 to 50 uM. Particulars: dose 12.5-50 µM.
The test system of data set [15] is Pseudomonas aeruginosa. In words: Antibacterial activity against Pseudomonas aeruginosa PAO1 infected in Caenorhabditis elegans assessed as improvement in survival rate at 12.5 to 50 uM measured upto 72 hrs. It is filed as functional, organism-based. To be noted: dose 12.5-50 µM.
Data set [16] has as its system Pseudomonas aeruginosa. As to the kind of experiment: Antibacterial activity against Pseudomonas aeruginosa PAO1 infected in Caenorhabditis elegans assessed as survival rate at 12.5 to 50 uM measured upto 72 hrs relative to control. It is filed as functional. To be noted: dose 12.5-50 µM.
For data set [17], the system named is Cell membrane. As to the kind of experiment: Induction of cytoplasmic membrane permeabilization in Pseudomonas aeruginosa PAO1 assessed as disruption of cell membrane integrity by measuring increase in number of dead cells measured after 2 hrs by PI and SYTO9 staining based confocal laser scanning microscopy analysis. The format is cell membranes.
Data set [18] can be described thus: Metal chelating activity assessed as compound-Fe3+ complex formation incubated for 10 mins by CAS assay.
Data set [19] deals with Pseudomonas aeruginosa. As to the kind of experiment: Antibacterial activity against Pseudomonas aeruginosa PAO1 overexpressing fpvA mutant assessed as fold increase in MIC measured after 18 to 20 hrs by broth microdilution method. The format is functional. Particulars: time 18-20 hrs.
The subject of data set [20] is Pseudomonas aeruginosa. As to the kind of experiment: Antibacterial activity against Pseudomonas aeruginosa PAO1 delta-pvds measured after 18 to 20 hrs by broth microdilution method. It is filed as functional, organism-based. To be noted: time 18-20 hrs.
Data set [21] has as its system Pseudomonas aeruginosa. In words: Antibacterial activity against Pseudomonas aeruginosa PAO1 infected in Caenorhabditis elegans assessed as improvement in survival rate at 50 uM measured after 72 hrs. The format is functional, organism-based.

SMILES strings stand for the structures. Values after ≈ are worked out from the molar mass of the structure shown. Active and inactive are the calls of the source. The calls are words filed in the database; no cut-off is given here.

For `CC(C)=CCc1c(OCCCCCCC(=O)NCc2cc(=O)c(O)cn2C)cc(/C=C/c2ccc(F)cc2)c(C(=O)O)c1O`, the minimum inhibitory concentration (MIC) is above 250 µM in the data set on Klebsiella pneumoniae [1]; above 250 µM with Escherichia coli [2]; above 250 µM against Staphylococcus aureus; 7.8 µM (≈ 4.73 µg/mL) against Pseudomonas aeruginosa [3]; 15.6 µM (≈ 9.46 µg/mL) in the data set on Pseudomonas aeruginosa [4]; 15.6 µM (≈ 9.46 µg/mL) in the data set with Pseudomonas aeruginosa [5]. The MIC with Pseudomonas aeruginosa [6] was 31.2 µM (≈ 19 µg/mL); in the data set with Pseudomonas aeruginosa [7], above 250 µM; in the data set on Pseudomonas aeruginosa [8], above 250 µM; with Klebsiella pneumoniae [9], above 250 µM; in the data set on Escherichia coli [10], above 250 µM. Further, the Activity entry in the data set on Cell membrane [11] is “Dose-Dependent Effect”; in data set [12] it was “Non-Toxic”; in [13] it was “Toxic”; with Erythrocyte, “Non-Toxic”; in data set [14], “Non-Toxic”; in the data set with Cell membrane [17], “Dose-Dependent Effect”. Besides, the result (in the data set with Pseudomonas aeruginosa [15]; in [18]; in the data set on Pseudomonas aeruginosa [20]) was Active. Besides, the Survival in the data set with Pseudomonas aeruginosa [16] turned out to be 50%. The “fold change (FC)” value in the data set with Pseudomonas aeruginosa [19] is listed as 4.

For `COc1cc(/C=C/c2ccc(F)cc2)c(C(=O)O)c(O)c1CC=C(C)C`, the MIC was above 250 µM in the data set with Klebsiella pneumoniae [1]; above 250 µM against Escherichia coli [2]; 15.6 µM (≈ 5.56 µg/mL) with Staphylococcus aureus; above 250 µM in the data set on Pseudomonas aeruginosa [3]; above 250 µM in the data set with Pseudomonas aeruginosa [4]; above 250 µM with Pseudomonas aeruginosa [5]. The MIC with Pseudomonas aeruginosa [6], in the data set with Pseudomonas aeruginosa [7], with Pseudomonas aeruginosa [8], in the data set with Klebsiella pneumoniae [9] and in the data set on Escherichia coli [10] was above 250 µM each time. Besides, in [12], the Activity entry is recorded as “Non-Toxic”. Besides, the outcome (in the data set on Pseudomonas aeruginosa [21]; in data set [18]) was inactive.

Consider `CC(C)=CCc1c(OCCCCCCCC(=O)NCc2cc(=O)c(O)cn2C)cc(/C=C/c2ccc(F)cc2)c(C(=O)O)c1O`, for which the MIC was above 250 µM against Klebsiella pneumoniae [1]; above 250 µM in the data set with Escherichia coli [2]; above 250 µM against Staphylococcus aureus; 7.8 µM (≈ 4.84 µg/mL) in the data set with Pseudomonas aeruginosa [3]; 15.6 µM (≈ 9.68 µg/mL) against Pseudomonas aeruginosa [4]; 15.6 µM (≈ 9.68 µg/mL) in the data set with Pseudomonas aeruginosa [5]. Also, the MIC against Pseudomonas aeruginosa [6] was 31.2 µM (≈ 19.4 µg/mL); in the data set on Pseudomonas aeruginosa [7], above 250 µM; in the data set on Pseudomonas aeruginosa [8], above 250 µM; in the data set with Klebsiella pneumoniae [9], above 250 µM; in the data set on Escherichia coli [10], above 250 µM. In addition, the outcome (in the data set with Cell membrane [11]; in the data set with Pseudomonas aeruginosa [15]; in data set [18]; in the data set with Pseudomonas aeruginosa [20]) was Active. Also, the Activity entry is “Non-Toxic” in data set [12]; “Toxic” in data set [13]; “Non-Toxic” with Erythrocyte; “Non-Toxic” in [14]; “Dose-Dependent Effect” in the data set on Cell membrane [17]. Also, in the data set with Pseudomonas aeruginosa [16], the Survival is reported as 50%. In the data set on Pseudomonas aeruginosa [19], the “fold change (FC)” value was 4.
